Laboratory results reported in ChEMBL document CHEMBL1121811, “Synthesis and biological evaluation of certain 2'-deoxy-beta-D-ribo- and -beta-D-arabinofuranosyl nucleosides of purine-6-carboxamide and 4,8-diaminopyrimido[5,4-d]pyrimidine” (1981).

Tests used:
[1] = system: Mus musculus; experiment: Compound was tested for the ability to suppress humoral immune response in mice treated for days -2,-1,and 0 at dose of 100 mg/kg (control = 9.5); type: functional
[2] = system: Mus musculus; experiment: Compound was tested for the ability to suppress skin-graft rejection in mice treated daily from day of graft transfer until rejection at dose of 75 mg/kg (control = 12+/-0.21)
[3] = system: Mus musculus; experiment: Compound was tested for the ability to suppress humoral immune response in mice treated for days 0,+1,and +2 at dose of 100 mg/kg (control = 10.0)
[4] = system: Mus musculus; experiment: Effect of compound on induction of cellular immunity was studied at different dose of 50 mg/kg. (control = 12+/-0.21); type: functional
[5] = system: Mus musculus; experiment: Compound was tested for the ability to suppress skin-graft rejection in mice treated daily from day of graft transfer until rejection at dose of 100 mg/kg (control = 12+/-0.21)
[6] = system: Mus musculus; experiment: Compound was tested for the ability to suppress humoral immune response in mice treated for days -2,-1,and 0 at dose of 25 mg/kg (control = 9.5); type: functional
[7] = system: Mus musculus; experiment: Effect of compound on induction of cellular immunity was studied at different dose of 15 mg/kg (control = 12+/-0.2); type: functional
[8] = system: Mus musculus; experiment: Compound was tested for the ability to suppress humoral immune response in mice treated for days 0,+1,and +2 at dose of 25 mg/kg (control = 7.0); type: functional
[9] = system: Mus musculus; experiment: Compound was tested for the ability to suppress humoral immune response in mice treated for days 0,+1,and +2 at dose of 100 mg/kg (control = 8.9); type: functional
[10] = system: Mus musculus; experiment: Compound was tested for the ability to suppress humoral immune response in mice treated for days 0,+1,and +2 at dose of 50 mg/kg (control = 8.9); type: functional
[11] = system: Mus musculus; experiment: Compound was tested for the ability to suppress humoral immune response in mice treated for days -2,-1,and 0 at dose of 50 mg/kg (control = 8.1); type: functional
[12] = system: Mus musculus; experiment: Compound was tested for the ability to suppress humoral immune response in mice treated for days 0,+1,and +2 at dose of 25 mg/kg (control = 8.9)
[13] = system: Mus musculus; experiment: Compound was tested for the ability to suppress humoral immune response in mice treated for days -2,-1,and 0 at dose of 100 mg/kg (control = 8.1); type: functional
[14] = system: Mus musculus; experiment: Compound was tested for the ability to suppress humoral immune response in mice treated for days 0,+1,and +2 at dose of 100 mg/kg (control = 6.5); type: functional
[15] = system: Mus musculus; experiment: Compound was tested for the ability to suppress humoral immune response in mice treated for days -2,-1,and 0 at dose of 100 mg/kg (control = 10.3); type: functional
[16] = system: Mus musculus; experiment: Compound was tested for the ability to suppress humoral immune response in mice treated for days 0,+1,and +2 at dose of 50 mg/kg (control = 6.5); type: functional
[17] = system: Mus musculus; experiment: Compound was tested for the ability to suppress humoral immune response in mice treated for days 0,+1,and +2 at dose of 100 mg/kg (control = 9.0); type: functional
[18] = system: Mus musculus; experiment: Compound was tested for the ability to suppress humoral immune response in mice treated for days 0,+1,and +2 at dose of 180 mg/kg (control = 9.1); type: functional
[19] = system: Mus musculus; experiment: Compound was tested for the ability to suppress humoral immune response in mice treated for days 0,+1,and +2 at dose of 180 mg/kg (control = 9.0); type: functional
[20] = system: Mus musculus; experiment: Compound was tested for the ability to suppress humoral immune response in mice treated for days 0,+1,and +2 at dose of 50 mg/kg (control = 9.0); type: functional
[21] = system: Mus musculus; experiment: Compound was tested for the ability to suppress humoral immune response in mice treated for days -2,-1,and 0 at dose of 50 mg/kg (control = 10.3); type: functional

Nc1ncnc2c(N[C@@H]3O[C@H](CO)[C@@H](O)[C@@H]3O)ncnc12
Mean hemagglutination titers [1]: 8.7 | mean survival time [2]: 13 | Mean hemagglutination titers [3]: 11 | mean survival time [4]: 14 | mean survival time [5]: 16

Nc1ncnc2c(N[C@@H]3O[C@H](CO)[C@@H](O)[C@H]3O)ncnc12
Mean hemagglutination titers [6]: 8.5 | mean survival time [7]: 21 | Mean hemagglutination titers [8]: 0

Nc1ccn([C@@H]2O[C@H](CO)[C@@H](O)[C@@H]2O)c(=O)n1 [CYTARABINE]
Mean hemagglutination titers [8]: 3.4

Sc1ncnc2nc[nH]c12 [MERCAPTOPURINE ANHYDROUS]
Mean hemagglutination titers [9]: 4.1 | Mean hemagglutination titers [10]: 7.2 | Mean hemagglutination titers [11]: 7.5 | Mean hemagglutination titers [12]: 7.5 | Mean hemagglutination titers [13]: 3.4

OC[C@H]1O[C@@H](n2cnc3c(S)ncnc32)[C@H](O)[C@@H]1O [THIOINOSINE]
Mean hemagglutination titers [14]: 7.2 | Mean hemagglutination titers [15]: 8.3 | Mean hemagglutination titers [16]: 7.2 | Mean hemagglutination titers [17]: 7.4 | Mean hemagglutination titers [11]: 8.5 | Mean hemagglutination titers [18]: 8.7 | Mean hemagglutination titers [19]: 6.4 | Mean hemagglutination titers [20]: 9.1 | Mean hemagglutination titers [21]: 8.3 | Mean hemagglutination titers [13]: 8.4
